Measurements published in patent US11634381B2, “RUNX2 transcription factor inhibitors and uses thereof” (University of Maryland, Baltimore, priority 2015, dated 2023).

How the values were obtained:
MCF7 RUNX2 Tet.OFF cells = test: Suspension culture tumorsphere formation; assay type: cell-based, human; details: for tumorsphere diameter: 50 μM compound 1, 12 days
Method: MCF7 Tet.OFF cells were grown in the presence (+Dox, RUNX2 negative) or absence (−Dox, RUNX2 positive) of doxycycline for 3 days. Cells were then scraped and counted. 60,000 cells were plated in each well of a 6-well ultra-low attachment plate (Corning; 3471) in Promocell Basal Medium (Promocell; c-22211) complete with Supplement Mix (Promocell; c-39216). Cells were then treated with or without 2 ng/mL TGFβ (R&D Systems; 240-B-002). After growth for 10-15 days, wells were photographed and tumorsphere diameters were measured from photographic images (mm). Colony diameters were calculated using the formula: (L+W)/2. Representative photographs were obtained at 4× magnification. […] For TAZ siRNA knockdown experiments, TAZ siRNA was transfected (as below) into MCF7 Tet.OFF cells and 24 hr later cells were scraped and placed into suspension as described above. Small-Interfering RNA (siRNA) pool targeting RUNX1, RUNX2, and non-targeting control were purchased from Dharmacon, and transfected into cells using RNAiMAX Reagent (Invitrogen). Western blot analysis was performed 48 hrs after transfection.

BC cells = test: Anchorage-independent cell growth assay (soft agar); assay type: cell-based, human; details: 50 μM
Method: Cells (10,000) were mixed in 1 ml of 0.3% low-melting agarose over a 0.6% agar bottom layer in normal growth media. The medium (600 μl) with or without compound 1 (50 μM) on soft agar was changed three times a week for 2-3 weeks. Images of MDA-231 and MCF7 were taken using Nikon Eclipse TE-2000S microscope with Zen Pro image software, and of MDA-468 using Olympus CKX41 microscope with Q-Capture Pro 7 image software at indicated magnifications under the same exposure settings for corresponding vehicle and drug treatments.

[1] = system: RUNX2 transcriptional activity; test: Luciferase-promoter reporter assay of RUNX2 target genes; assay type: cell-based, human
Method: Cells were plated in 96-well plates (30,000 cells/well) and incubated overnight. Cells were co-transfected with indicated luciferase-reporter plasmids (25 ng/well) and pSV-Renilla-Luc (Promega) (15 ng/well) for 6 hrs and compound 1 ([…]) was further treated for 18-48 hrs. COX-2 (P2-274)-Luc (−170bp˜+104bp) and control plasmids (PXP2-Luc) were kindly provided byDr. Miguel A. Iñiguez (Universidad Autónoma de Madrid, Spain), and pNF-kb-Luc was from Dr. Hancai Dan (University of Maryland). Luciferase assay was performed using the Dual-Glo Luciferase Assay Systems as per manufacturer's recommendation (Promega).

PDH = PDH enzymatic activity microtiter plate assay; assay type: cell-based, human; details: MDA-MB-468 and MCF7, 50 μM
Method: In FIG. 23A PDH enzymatic activity was determined in doxycycline-responsive MCF7-tet-off (left) and Hs578t-Control or RUNX2 KD cells (right) or non-targeting control siRNA (NTC=RUNX2+) versus RUNX2 KD (55.5 cells=RUNX2 KD) using an antibody-specific microtiter plate assay. Results are expressed as the change in Absorbance at 450 nm per minute per mg protein (ΔmOD450/min/mg) (*p<0.05). In FIG. 23B PDH activity was determined in MDA-MB-468 (left) and MCF7 (right) BC cell lines with or without compound 1 treatment (50 μM) for the indicated time period.

BC cell lines = test: Clonogenic survival assay; assay type: cell-based, human; details: 50 μM
Method: Cells were plated on 6-well plates (200˜500 cells/well). After compound 1 (50 μM) treatment, cells were incubated for 2-3 weeks without changing media. Colonies were fixed in Methanol-Acetic Acid solution (3:1) and stained with crystal violet (0.5%). After washing, colonies were photographed and counted.

RUNX2 = RUNX2 (Homo sapiens, UniProt Q13950); test: Western blot of RUNX2, RUNX1, CBF-β; assay type: cell-based; design: endogenous in cells; host or cells: MDA-231, MDA-468
Method: Whole cell lysates extracted in RIPA buffer (Upstate) were separated on 4-12% gradient SDS-PAGE and transferred to nitrocellulose membrane. The blots were incubated with specific antibodies for each protein overnight at 4° C. After antibody washing, the blots were reacted with their respective secondary antibody and detected with enhanced chemiluminescence reagents (Millipore) according to the supplier's protocol. Antibodies for proteins were purchased as below. RUNX1, RUNX2, CBF-β, ubiquitin and caspase-3 (Cell Signaling Technologies), S451-p-RUNX2 (Bioss Gentaur, Belgium), RUNX3 and Glut-1 (Millipore, Calif.), β-actin and RUNX2 antibody for IHC (Sigma-Aldrich), and Ki-67 for IHC (Bethyl Laboratories, Inc, TX).

Chain of RUNX2 (Q13950 whole entry): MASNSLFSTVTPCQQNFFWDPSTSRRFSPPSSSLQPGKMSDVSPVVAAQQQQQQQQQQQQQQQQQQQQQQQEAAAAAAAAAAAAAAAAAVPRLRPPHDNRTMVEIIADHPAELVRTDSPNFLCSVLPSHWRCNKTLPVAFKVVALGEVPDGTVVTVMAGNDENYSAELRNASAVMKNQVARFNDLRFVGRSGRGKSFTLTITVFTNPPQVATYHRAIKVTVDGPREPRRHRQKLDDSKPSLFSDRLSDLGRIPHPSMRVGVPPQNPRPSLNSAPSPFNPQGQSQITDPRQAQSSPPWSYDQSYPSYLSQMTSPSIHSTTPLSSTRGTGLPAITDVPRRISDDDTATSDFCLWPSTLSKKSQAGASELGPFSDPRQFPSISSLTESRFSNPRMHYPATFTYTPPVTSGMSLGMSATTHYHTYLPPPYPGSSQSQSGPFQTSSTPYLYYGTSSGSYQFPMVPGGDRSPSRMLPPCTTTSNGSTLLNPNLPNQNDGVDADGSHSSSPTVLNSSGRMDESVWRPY

## O=C(O)C1C2C=CC(C2)C1C(=O)Nc1ccc(Cl)c(Cl)c1 (stereo not shown) [compound 1, 3-(N-(3,4-dichlorophenyl)carbamoyl)-5-norbornene-2-carboxylic acid]
MCF7 RUNX2 Tet.OFF cells; RUNX2 negative cells
  tumorsphere diameter: 6.37±1.78 mm
MCF7 RUNX2 Tet.OFF cells; RUNX2 positive cells, 50 μM compound 1
  fold inhibition of tumorsphere diameter relative to vehicle: ~4 fold
MCF7 RUNX2 Tet.OFF cells; RUNX2 positive cells
  tumorsphere diameter: 4.83±1.87 mm
BC cells; 2-3 weeks
  anchorage-independent cell growth: strongly inhibited
BC cells; MDA-231, MCF7, MDA-468
  colony size relative to control: < 1/10
[1]; BT474 cells that do not express RUNX2, 48 hrs
  MMP13 promoter activity: did not attenuate
[1]; MCF7-RUNX2 cells
  repression of MMP13 promoter-Luc activity: about 50%
[1]; MDA-231 cells that express RUNX2, 48 hrs
  MMP13 promoter activity: decreased significantly
[1]; T47D-Empty and MCF7-Empty
  promoter-Luc activities of control cells: little effect
[1]; T47D-RUNX2 and MCF7-RUNX2 cells, 48 hrs
  promoter-luciferase activities of MMP13, VEGF and OC: dramatic decrease
[1]; T47D-RUNX2 cells
  RUNX2-repressed p21 promoter activity: reactivated
  p6xOSE2-Luc activity: slightly but significantly reduced
[1]; T47D-RUNX2 cells, 2 μM
  MMP13 promoter-Luc activity: almost completely blocked
PDH
  PDH activity: increases PDH activity
BC cell lines; 2˜3 weeks, 11 out of 13 BC cells
  clonogenic survival: less than 50%
BC cell lines; 2˜3 weeks, BT549, HCC70, MDA-468, MCF7, HCC361, BT474
  clonogenic cell survival: less than 10%
BC cell lines; 2˜3 weeks, MDA-231 and Hs578t
  clonogenic survival: > 50%
BC cell lines; 2˜3 weeks, MDA-468 and BT474
  clonogenic survival: did not survive
BC cell lines; T47D-Empty and T47D-RUNX2 cells, 14 days
  clonogenicity: dramatically diminished
RUNX2
  nuclear translocation of RUNX2 protein: did not block or attenuate
RUNX2; Empty controls, MDA-468 and MCF7
  S451-p-RUNX2 levels: clearly reduced
RUNX2; MDA-468 and MDA-231 cells, cycloheximide, 50 μM
  RUNX2 protein stability: increased RUNX2 stability
